Source: patent US8658424B2, “Myelinating oligodendrocyte precursor populations” (Wisconsin Alumni Research Foundation, priority 2007, dated 2014)
“Also recorded” adds a separate entry of the source.

What was measured:
Type in all cases: cell-based, human
[1] = system: hESC-derived neuroepithelial cells; assay: Olig2 induction from hESC-derived neuroepithelial cells (immunostaining); settings: for Olig2-expressing progenitors: treatment during Olig2 induction, SHH 100 ng/ml, purmorphamine 1 μM, day 35
Protocol: hESCs (line H1 and H9; WiCell Research Institute; Madison, Wis.) were cultured on irradiated mouse embryonic fibroblasts (MEF) in a 6-well plate. […] Differentiated colonies were marked and removed physically with a pipette tip and the stem cell state was periodically monitored by expression of Oct4 and SSEA4.
hESCs were then differentiated to primitive neuroepithelial cells in an adherent colony culture for 10 days in a neural induction medium consisting of DMEM/F12, N2 supplement and non-essential amino acids, as detailed elsewhere. […] Chem. Soc. […] The neuroepithelial colonies were gently blown off the surface by a pipette and grown as floating clusters in suspension in the same medium.
(§1) Immuno-fluorescent staining on coverslip cultures and free-floating brain sections was described previously. […] Specificity of the antibodies was first tested in embryonic brain and spinal cord tissues. Li et al., supra; and Pankratz et al., supra. Negative controls without primary and secondary antibody were performed in all experiments to monitor non-specific staining. The stained samples were visualized with a Nikon TE600 fluorescent scope equipped with a SPOT camera and software (Diagnostic Instruments; Sterling Heights, Mich.), as well as a Nikon C1 laser scanning confocal microscope.
(§2) At least three coverslips were counted for every group. The experiments were repeated three times with different batches of cells.

[2] = system: hESC-derived Olig2 progenitors; assay: Differentiation of Olig2 progenitors to OPCs in glial differentiation medium (marker immunostaining); settings: for timing of OPC differentiation (PDGFRα, NG2, Sox10): added to Olig2/Nkx2.2 progenitors in glial differentiation medium; for OLIG2/PDGFRa double positive OPCs: day 100, treatment from Olig2 induction; for PDGFRα+ OPCs (in words): treated between days 24 and 35, later OPC differentiation
Protocol: Olig2-expressing progenitors usually appeared around day 24 (Li et al., supra). […] FGF2 (R&D; 10 ng/ml) and/or EGF (Sigma; 10 ng/ml) was added to examine their effect on motor neuron differentiation and progenitor proliferation.
From the 5th week of differentiation, FGF2 was replaced with a cocktail of cytokines consisting of PDGFAA, IGF1 and NT3 (all at 10 ng/ml). Du Z, et al., “Induced expression of Olig2 is sufficient for oligodendrocyte specification but not for motoneuron specification and astrocyte repression,” Mol. Cellular Neurosci. […] SHH or purmorphamine was removed around 10 weeks when PDGFRα+ OPCs appeared. The cultures were fed every other day and the progenitor clusters were broken into smaller pieces with polished glass Pasteur pipette every week.
as §1, §2

[3] = system: hESC-derived Olig2 progenitors; assay: Olig2/Nkx2.2 co-expression in Olig2 progenitors (immunostaining); settings: for OLIG2+/NKX2.2+ population: gliogenic progenitors treated day 35 to 50 (purmorphamine 1 uM, cyclopamine 5 μM), examined day 50; for cells expressing Olig2 and/or Nkx2.2: treated day 24 to 35, examined day 35
Excerpt: (§3) Olig2-expressing progenitors usually appeared around day 24 (Li et al., supra). The culture was then switched to a glial differentiation medium (modified Bottenstein-Sato medium; see, Bottenstein J, et al., “The growth of cells in serum-free hormone-supplemented media,” Methods Enzymol. 58:94-109 (1979); and Bottenstein J, et al., “Selective survival of neurons from chick embryo sensory ganglionic dissociates utilizing serum-free supplemented medium,” Exp. Cell Res. 125:183-190 (1980)) consisting of DMEM, N1 supplement (Sigma; St. Louis, Mo.), T3 (Sigma); 60 ng/ml), biotin (Sigma; 100 ng/ml) and cAMP (Sigma; 1 uM). FGF2 (R&D; 10 ng/ml) and/or EGF (Sigma; 10 ng/ml) was added to examine their effect on motor neuron differentiation and progenitor proliferation.
(§4) Immuno-fluorescent staining on coverslip cultures and free-floating brain sections was described previously. Zhang et al. (2001), supra; Pankratz et al., supra. The following primary antibodies were used in the present study: anti-Olig2 (goat IgG, 1:500, sc-19969, Santa Cruz Biotechnology; Santa Cruz, Calif.), anti-βIII-tubulin (TuJ1, mlgG 1:5000, Sigma), anti-GFAP (mlgG 1:5000, Chemicon), anti-NG2 (mlgG 1:400, BD Pharmingen), anti-HB9 (mlgG 1:50, DSHB, Iowa City, Iowa), anti-PDGFRα (rat IgG 1:1000, gift from Dr. Stallcup WILLIAM STALLCUP, Burnham Institute for Medical Research, burnham.org/default.asp?contentID=203 on the World Wide Web) (Nishiyama A, et al., “Colocalization of NG2 proteoglycan and PDGF alpha-receptor on O2A progenitor cells in the developing rat brain,” J. Neurosci. Res. 43:299-314 (1996)), anti-O4 (1:50, mouse IgM, Chemincon MAB345), MBP (1:500, rabbit IgG, Chemicon), anti-human nuclei (1:200, mouse IgG, Chemicon). Specificity of the antibodies was first tested in embryonic brain and spinal cord tissues. Li et al., supra; and Pankratz et al., supra. Negative controls without primary and secondary antibody were performed in all experiments to monitor non-specific staining. The stained samples were visualized with a Nikon TE600 fluorescent scope equipped with a SPOT camera and software (Diagnostic Instruments; Sterling Heights, Mich.), as well as a Nikon C1 laser scanning confocal microscope.
(§5) For quantification of stained cell populations, optical fields were randomly selected with fixed ROI (region of interest) frame using cell counter plugin of ImageJ (Abramoff M, et al., “Image Processing with ImageJ,” Biophoton. Int. 11:36-42 (2004)) from independent coverslips of the same group. At least three coverslips were counted for every group. The experiments were repeated three times with different batches of cells. Statistical analyses were performed using ANOVA with R (R_Development_Core_Team, 2007).
Continued SHH signaling was required for maintaining gliogenic Olig2 progenitors. Gliogenic Olig2 progenitor cultures (day 35) were grown in the presence or absence of purmorphamine (1 uM), or the presence of cyclopamine (5 μM) for 2 weeks. […] Thus, SHH signaling was continuously needed to maintain the Olig2 progenitors, even though exogenous SHH is now not necessary.

[4] = system: hESC-derived Olig2 progenitors; assay: Motor neuron differentiation of Olig2 progenitors (HB9 and Olig2 immunostaining); settings: for cells expressing HB9: day 35, cultures with purmorphamine from day 24, with or without FGF2 10 ng/ml; for HB9 expression: day 24 to 35, combined with purmorphamine, FGF2 or EGF 10 ng/ml
Excerpt: as §3, §4, §5
FGF2 (10 ng/ml) was applied to the culture alongside purmorphamine at day 24 (following the appearance of Olig2, but before the differentiation of HB9+ motor neurons). […] Li et al., supra; and Li X & Zhang S, “In vitro differentiation of neural precursors from human embryonic stem cells,” Methods Mol. Biol. 331:169-177 (2006). […] Accordingly, a much larger population (55%) of Olig2 cells was present when FGF2 was present early on. RT-PCR analyses confirmed that Ngn2 and HB9 expression was repressed. Cultures with FGF2 alone (without the presence of SHH or purmorphamine) had few, if any, HB9+ motor neurons or Olig2-expressing progenitors (see FIGS. 4B, C).

[5] = system: hESC-derived Olig2 progenitors; assay: Progenitor proliferation (Ki67 positive cells); settings: 10 ng/ml, day 24 to 35
Excerpt: as §3
To determine pro-proliferation effects of FGF2, we used another mitogen, EGF, as a control. […] Thus, FGF2 appeared to increase the Olig2+ cells by preventing the differentiation of Olig2 progenitors to motor neurons.

[6] = system: hESC-derived Olig2 progenitors; assay: RT-PCR gene expression in progenitor cultures
[7] = system: hESC-derived Olig2 progenitors; assay: FACS analysis of OLIG2+ population; settings: day 50, with FGF2 versus without FGF2
[8] = system: hESC-derived Olig2 progenitors; assay: Differentiation of Olig2 progenitors to OPCs in glial differentiation medium (marker immunostaining); settings: progenitors cultured in the presence of FGF2 throughout; 13-14 weeks

In the case of c1ccc2c(Oc3nc(Nc4ccc(N5CCOCC5)cc4)c4ncn(C5CCCCC5)c4n3)cccc2c1 [purmorphamine], the “concentration that produced the highest proportion of Olig2 progenitors” value [1] is reported as 1 µM, the “induction of Olig2 compared with SHH” value ([1]; purmorphamine 1 uM replacing SHH, p<0.0001) is reported as “earlier and more potent induction of Olig2” and the “earlier induction of Olig2 expression than SHH” value ([1]; purmorphamine versus SHH) is reported as 4 to 5 days. The Olig2-expressing progenitors [1] was “present”, the “timing of OPC differentiation (PDGFRα, NG2, Sox10)” value [2] was “did not speed up the differentiation of OPCs” and the “OLIG2/PDGFRa double positive OPCs” value [2] was “present”. For the same molecule, the “PDGFRα+ OPCs” value ([2]; treated day 35 to 50, examined day 100) was “appear”, the “OLIG2+/NKX2.2+ population” value [3] was “present” and the “more Olig2/Nkx2.2 double positive cells” value ([3]; purmorphamine 1 uM day 35 to 50, day 50, printed comparator: cultures with cyclopamine) was “about 40%”. The “cells expressing Olig2 and/or Nkx2.2” value [3] was “co-express; also recorded: sustained Olig2 progenitor population” and the “cells expressing HB9” value [4] was 40-50%.

With “EGF: mitogen used as a control for FGF2 (Sigma)” the “timing of OPC differentiation (PDGFRα, NG2, Sox10)” value [2] was “did not speed up the differentiation of OPCs”, the “proportion of Olig2 positive cells” value ([4]; EGF 10 ng/ml, day 24 to 35) was “did not increase” and the HB9 expression [4] was “moderately decreases”. The “proportion of Ki67 positive cells” value [5] was “does not selectively alter; also recorded: did not increase”.

With FGF2: Fibroblast Growth Factor 2 (R&D) the total cells generated ([2]; FGF2 with purmorphamine days 24-35 versus purmorphamine alone) was “substantially more total cells”, the “timing of OPC differentiation (PDGFRα, NG2, Sox10)” value [2] was “did not speed up the differentiation of OPCs” and the “PDGFRα+ OPCs (in words)” value [2] was “similar”. For the same molecule, the Nkx2.2 progenitors ([3]; FGF2 continued from day 35, 7th week) was “did not appear to change significantly”, the “Olig2/Nkx2.2 double positive cells” value ([3]; FGF2 continued from day 35, examined day 50 (7th week)) was “decreased; also recorded: few double positive cells” and the “population of Olig2 cells” value ([4]; FGF2 10 ng/ml with purmorphamine from day 24, day 35) was 55%. The “HB9+ motor neurons or Olig2-expressing progenitors” value ([4]; FGF2 alone, without SHH or purmorphamine) was “few, if any”, the HB9-expressing cells ([4]; FGF2 removed at day 35 and RA added back, one to two weeks later) was “hardly any” and the HB9 expression [4] was “blocks HB9 expression; also recorded: nearly completely blocked HB9 expression”. For the same molecule, the “cells expressing HB9” value [4] was “less than 5%”, the “increase of OLIG2+ cells” value ([4]; with presence of Pur, 12 days from day 24) was “about 50%” and the “proportion of Ki67 positive cells” value [5] was “does not selectively alter”. For the same molecule, the “Ngn2 and HB9 expression (RT-PCR)” value ([6]; FGF2 10 ng/ml with purmorphamine, day 24 to 35) was “repressed”, the “expression of NFIA (RT-PCR)” value ([6]; FGF2 from day 35) was “promoted the expression of NFIA” and the “expression of Olig2 (RT-PCR)” value ([6]; FGF2 from day 35 in presence of purmorphamine) was “compromises the effect of purmorphamine to maintain expression of Olig2”. The “SHH transcript (quantitative RT-PCR)” value ([6]; day 50, FGF2 from day 35) was “decreases SHH by half”, the “transcription of GLI2 and GLI3 (quantitative RT-PCR)” value ([6]; day 50, FGF2 from day 35) was “increases” and the “decrease in the OLIG2+ population (FACS)” value [7] was 10%. The “GFAP+ astrocytes” value [8] was 35%, the “PDGFRa+ OPCs” value [8] was 4% and the “βIII tubulin+ neurons” value [8] was 53%.

In the case of sonic hedgehog [SHH], the “onset of Olig2 expression” value ([1]; one week following SHH treatment) is reported as ~23 day of differentiation, the Olig2-expressing progenitors [1] is reported as “present” and the “timing of OPC differentiation (PDGFRα, NG2, Sox10)” value [2] is reported as “did not speed up the differentiation of OPCs”. The “OLIG2/PDGFRa double positive OPCs” value [2] was “present” and the “cells expressing Olig2 and/or Nkx2.2” value [3] was “co-express; also recorded: sustained Olig2 progenitor population”.

CC1=C2C[C@H]3[C@@H](CC=C4C[C@@H](O)CC[C@@]43C)[C@@H]2CC[C@]12O[C@@H]1C[C@H](C)CN[C@H]1[C@H]2C [cyclopamine] was tested, and the Olig2-expressing progenitors [1] was “rarely; also recorded: blocked Olig2 transcription; also recorded: near absence of Olig2 cells”, the “OLIG2/PDGFRa double positive OPCs” value [2] was “rarely; also recorded: lack of OPCs” and the “PDGFRα+ OPCs (in words)” value [2] was “few OPCs were present”. For the same molecule, the “OLIG2+/NKX2.2+ population” value [3] was “not and few cells expressing Olig2 and/or Nkx2.2” and the “cells expressing Olig2 and/or Nkx2.2” value [3] was “near complete lack of cells expressing Olig2 and/or Nkx2.2”.

B1: Noggin: a BMP antagonist known to promote OPC differentiation (protein, UniProt Q13253 28-232, looked up)
Noggin: QHYLHIRPAPSDNLPLVDLIEHPDPIFDPKEKDLNETLLRSLLGGHYDPGFMATSPPEDRPGGGGGAAGGAEDLAELDQLLRQRPSGAMPSEIKGLEFSEGLAQGKKQRLSKKLRRKLQMWLWSQTFCPVLYAWNDLGSRFWPRYVKVGSCFSKRSCSVPEGMVCKPSKSVHLTVLRWRCQRRGGQRCGWIPIQYPIISECKCSC
For B1, the “timing of OPC differentiation” value ([2]; Noggin 100 ng/ml at day 35 together with SHH 100 ng/ml) was “did not result in earlier differentiation of OPCs”.
